Reference: patent publication US4988691A (priority 1989, dated 1991)
pIC50: −log10 of the molar value. “Also recorded” adds a separate entry of the source. Structures can show the parent of a compound that is named as a salt. Where two headings read alike, the source gives them in different places.

Columns and labels:
5-HT1 receptors = assay: affinity for 5-HT1 receptors (3H serotonin binding), rat cortex membranes; details: 3H-serotonin 5 nM; rat frontal cortex membranes
[1] = biological target: T1, contracturing effect of histamine (Cavia porcellus, UniProt P31389); assay: antihistaminic activity in vitro (contracturing effect of histamine on isolated guinea pig small intestine); parameters: species or system Guinea pigs
T1 construct: Segments measuring 5-6 cm were drawn form the end portion of the small intestine; from tissue; host or cells: guinea pig terminal small intestine (ileum)

Ca^++ receptors = assay: displacement of 3H-nitrendipine from Ca++ receptors, rat brain membranes; assay type: binding; details: 3H-nitrendipine 1nM
5-HT2 receptors = 5-HT2 receptors (Rattus norvegicus, UniProt P14842); assay: affinity for 5-HT2 receptors (3H-spiroperidol binding), rat cortex membranes; details: rat frontal cortex membranes
[2] = biological target: T2, contracturing effect of acetylcholine (Cavia porcellus, UniProt H0W1Z3); assay: anticholinergic activity in vitro (contracturing effect of acetylcholine on isolated guinea pig small intestine); parameters: species or system Guinea pigs
T2 construct: Segments measuring 5-6 cm were drawn form the end portion of the small intestine; from tissue; host or cells: guinea pig terminal small intestine (ileum)

guinea pig back = assay: local anaesthetic activity in the test of the guinea pig back in vivo (intracutaneous infiltration); details: for ED50 (C.L. 95%), 5 min. / ED50 (C.L. 95%), 15 min. / ED50 (C.L. 95%), 30 min.: guinea pig back, cutaneous anaesthesia, 0.25 ml; for ED50 (C.L. 95%), 5 min.: 5 min. after administration; for ED50 (C.L. 95%), 15 min.: 15 min. after administration; for ED50 (C.L. 95%), 30 min.: 30 min. after administration
Description: (b) Evaluation of the local anaesthetic activity in the test of the guinea pig back in vivo in comparison with lidocaine.
The local anaesthetic activity was evaluated by the method of intracutaneous infiltration in the guinea pig back as described by Bulbring E. and Wajda I. [(J. Pharmacol. Exp. Ther. 85, 78, (1945)].
Female guinea pigs weighin 400-500 g were treated intracutaneously in 4 points of their back.
At 5 minutes intervals, it was determined the reactivity of the animal to pain in each area by considering the number of responses to 6 pain stimulations.
Compounds of formula I, compound R and lidocaine, dissolved at different concentration in physiological solution adjusting the pH at 7 by addition of NaHCO3 were injected under the skin at the constant volume of 0.25 ml.
The distribution of the treatments in the 4 areas of the back was carried out according to the scheme of the Latin square. Experiments were carried out in blind.
As an example, the ED50 values for compound No. 8, compound R and lidocaine determined at 5, 15 and 30 minutes after the administration are reported in table 4.

[3] = system: reperfusion induced arrythmias in rat; assay: inhibition of reperfusion induced arrythmias in rat; assay type: in vivo; details: for % VF / % dead: 10 treated rats; for incidence dead / incidence VF: number of 10 treated rats
rat sciatic nerve = assay: local anaesthetic activity on sciatic nerve preparation in vitro; details: for pIC50: read-out: ED50 (C.L. 95%)
[4] = system: norepinephrine induced arrythmias in rat; assay: inhibition of norepinephrine induced arrythmias in rat; assay type: in vivo; details: for ED50: Rattus norvegicus, 50% reduction of arrythmia duration
Description: Male rats, weighing 300-400 g, narcotized with urethan (1.5 g/kg, i.p.) were used; one little probe was implanted into the jugular vein and another into the femoral vein for administering norepinephrine and the test substance respectively. The EGC was recorded in II derivation and from it the instantaneous heart rate was derived. Furthermore, the EGC wave was monitored on oscilloscope and made audible by mean of a loudspeaker. Norepinephrine (75 μg/kg/min. for 15 seconds, 7-8 μg/animal) was administered by means of a Braun perfusion apparatus. The dose of administered norepinephrine was established in preliminary tests so as to cause an arrythmia of a duration equal to or higher than 10 seconds. The arising time of the heart arrythmia starting from the beginning of the norepinephrine perfusion and the duration of the arrythmic phase were recorded. Tests of arrythmia duration for each animal were performed; thereafter the compounds of formula I and the compound R were administered intravenously or per os 2 minutes or 1 hour respectively before a fourth norepinephrine infusion. The activity of test compounds was evaluated as increasing percentage in the time of the arising of arrythmia as well as of the inhibition (duration of the arrythmic phase). For each dose at least 5 tests were performed. In table 9 we report as an example the ED50 values defined as 50% reduction of the duration of arrythmias after the administration of both compound No. 8 and compound R either intravenously (i.v.) or per os (p.o.).

[5] = system: receptors for benzodiazepins; assay: displacement of 3H-flunitrazepam from benzodiazepine receptors, rat cerebral cortex membranes; assay type: binding; details: 3H-flunitrazepam 1nM
5-HT3 receptors [6] = biological target: T3, 5-HT3 receptors (Rattus norvegicus, UniProt P35563); assay: anti-5-HT3 activity in vivo, inhibition of the Bezold-Jarisch effect; details: intravenous, read-out: ED50 to the antagonism of the heart rate fall (Bezold-Jarisch effect)
T3 construct: Male albino rats weighing 300-400 g anaesthetized with urethan; from tissue; host or cells: whole anaesthetized rat (endogenous receptor on cardiac vagal afferents)
T3 sequence (P35563 24-483): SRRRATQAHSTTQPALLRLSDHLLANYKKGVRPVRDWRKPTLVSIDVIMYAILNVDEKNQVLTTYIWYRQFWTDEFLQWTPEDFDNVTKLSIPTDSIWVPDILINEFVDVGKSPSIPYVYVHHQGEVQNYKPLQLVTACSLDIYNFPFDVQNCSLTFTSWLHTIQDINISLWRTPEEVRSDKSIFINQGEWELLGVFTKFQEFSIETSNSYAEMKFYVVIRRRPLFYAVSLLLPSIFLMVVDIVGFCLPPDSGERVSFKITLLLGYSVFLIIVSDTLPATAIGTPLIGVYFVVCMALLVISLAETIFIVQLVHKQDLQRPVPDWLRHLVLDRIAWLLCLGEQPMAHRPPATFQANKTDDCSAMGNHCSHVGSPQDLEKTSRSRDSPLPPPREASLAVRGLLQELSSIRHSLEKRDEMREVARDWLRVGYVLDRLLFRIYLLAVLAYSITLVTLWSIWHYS
Source text: (a) Evaluation of the anti-5-HT3 activity in vivo by the method of the inhibition of the Bezold-Jarisch effect. The followed method was described by Fozard J. R. et al. [Nature, 316, 126-131, (1985)]. Male albino rats weighing 300-400 g anaesthetized with urethan (1.25-1.5 g/kg i.p.) were used. A tracheal cannula to allow respiration, one little catheter implanted into the jugular vein for administering serotonin and another into the right femoral vein for the intravenous administration of the compounds of formula I and of compound R were used. The bolus injection into the jugular vein of a serotonin solution caused an abrupt reduction of the heart rate quantified as 100% of the effect. The evaluation of the anti-5-HT3 activity was performed by calculating ED50 values (μg/kg) to the antagonism of the heart rate fall.

5-HT3 receptors [7] = biological target: T4, 5-HT3 receptors (Oryctolagus cuniculus, UniProt A0A5F9C9J3); assay: anti-5-HT3 activity in vitro on the isolated vagus nerve of rabbit
T4 construct: from tissue; host or cells: isolated rabbit vagus nerve
T4 sequence (A0A5F9C9J3 1-494): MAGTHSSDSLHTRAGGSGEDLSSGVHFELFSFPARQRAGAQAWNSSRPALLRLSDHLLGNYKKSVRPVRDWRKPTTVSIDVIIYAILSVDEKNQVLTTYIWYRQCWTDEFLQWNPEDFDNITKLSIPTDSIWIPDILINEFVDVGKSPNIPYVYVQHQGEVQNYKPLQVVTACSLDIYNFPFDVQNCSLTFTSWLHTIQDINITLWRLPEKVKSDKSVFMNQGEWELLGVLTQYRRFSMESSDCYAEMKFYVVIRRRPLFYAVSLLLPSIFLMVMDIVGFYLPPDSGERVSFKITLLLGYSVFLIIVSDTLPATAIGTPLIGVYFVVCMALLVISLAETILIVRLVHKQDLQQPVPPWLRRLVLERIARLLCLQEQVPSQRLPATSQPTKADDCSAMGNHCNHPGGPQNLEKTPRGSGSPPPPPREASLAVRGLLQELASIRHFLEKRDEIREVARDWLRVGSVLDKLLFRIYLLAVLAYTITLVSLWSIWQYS
Description: (b) Evaluation of the anti-5-HT3 activity in vitro on the vagus nerve of rabbit. Male albino New Zeland rabbits weighing about 3 kg were sacrified by an air injection in the edge auriculaers vein. The two vagus nerves, drawn as soon as possible, were placed in a bath of Locke solution having the following composition: 154 mM NaCl; 5.5 mM KCl; 2.2 mM CaCl2; 5 mM glucose; 8 mM TRIS, the pH being adjusted at 7.6 by addition of HCl. Nerves were stripped of their epineurium and transferred into a device described by Kosterlitz H. W. et al., [J. Physiol., 183, IP-3P, (1966)] consisting of four compartments separated by means of 3 elastic membranes having a little hole through which the nerve passes. The glucose concentration perfusing a portion of the nerve was 315 mM. The overmaximal electric stimulation by a single shock at 10 seconds intervals elicited a potential visualized on a storage oscilloscope. In the potential the complexes due to the excitation of fibers A, B and C were distinguished. A serotonin solution applied to the nerve causes the dose-dependent fall of the potential for fibers C only. The non variation of the A-B complex when applying serotonin and the test compounds of formula I indicates on one hand the specific action of the substances for receptors relating to fibers C only (5-HT3 receptors) and on the other hand the absence of local-anaesthetic activity. Tests were performed at room temperature (24°-25° C.). The optimum maximum reduction of the potential of fibers C by serotonin resulted to be 44%. This reduction was adopted as maximum effect (100%). For each nerve a dose-response curve was constructed with cumulative doses of serotonin. After having washed serotonin and recovered the initial potential, the nerve was balanced with a fixed concentration of the compound of formula I for 60 minutes and successively the dose-response curve to serotonin was repeated, the compound of formula I being always present in the same concentration. After having applied a serotonin concentration sufficient to produce the highest effect, the preparation was washed and thereafter it was balanced again for 60 minutes with a solution of the same compound of formula I having a higher concentration. The procedure was then repeated. For each dose of the compound of formula I the test was repeated more than 5 times. The negative […] logarithm of the molar concentration of the compound of formula I which gives a 50% reduction of the effect of the agonist substance (pA2) was calculated. In table 7, the pA2 values of some compounds of formula I are reported.

[8] = 3 mg/kg per os, *** significance < 0.001
[9] = iv, 2 min, i.v., 2 minutes before norepinephrine, read-out: ED50 i.v.
[10] = po, 1 hour before norepinephrine, read-out: ED50 p.o.

T2 sequence (H0W1Z3 1-590): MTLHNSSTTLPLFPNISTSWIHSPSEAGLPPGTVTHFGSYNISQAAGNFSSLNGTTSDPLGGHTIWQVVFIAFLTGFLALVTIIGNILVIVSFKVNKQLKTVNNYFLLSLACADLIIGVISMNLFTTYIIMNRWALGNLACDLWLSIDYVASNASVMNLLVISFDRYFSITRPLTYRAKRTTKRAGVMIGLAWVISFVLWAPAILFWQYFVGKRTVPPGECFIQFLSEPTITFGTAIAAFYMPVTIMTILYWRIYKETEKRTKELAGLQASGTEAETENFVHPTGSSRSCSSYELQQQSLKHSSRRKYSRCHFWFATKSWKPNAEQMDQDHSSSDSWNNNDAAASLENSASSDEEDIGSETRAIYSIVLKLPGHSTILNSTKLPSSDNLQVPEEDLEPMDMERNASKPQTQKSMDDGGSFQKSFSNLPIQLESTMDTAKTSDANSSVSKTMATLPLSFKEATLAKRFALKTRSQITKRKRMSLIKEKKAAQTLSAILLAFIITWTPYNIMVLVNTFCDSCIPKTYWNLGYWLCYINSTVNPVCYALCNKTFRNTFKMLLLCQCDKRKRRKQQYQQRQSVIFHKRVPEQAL
T1 sequence (P31389 whole entry): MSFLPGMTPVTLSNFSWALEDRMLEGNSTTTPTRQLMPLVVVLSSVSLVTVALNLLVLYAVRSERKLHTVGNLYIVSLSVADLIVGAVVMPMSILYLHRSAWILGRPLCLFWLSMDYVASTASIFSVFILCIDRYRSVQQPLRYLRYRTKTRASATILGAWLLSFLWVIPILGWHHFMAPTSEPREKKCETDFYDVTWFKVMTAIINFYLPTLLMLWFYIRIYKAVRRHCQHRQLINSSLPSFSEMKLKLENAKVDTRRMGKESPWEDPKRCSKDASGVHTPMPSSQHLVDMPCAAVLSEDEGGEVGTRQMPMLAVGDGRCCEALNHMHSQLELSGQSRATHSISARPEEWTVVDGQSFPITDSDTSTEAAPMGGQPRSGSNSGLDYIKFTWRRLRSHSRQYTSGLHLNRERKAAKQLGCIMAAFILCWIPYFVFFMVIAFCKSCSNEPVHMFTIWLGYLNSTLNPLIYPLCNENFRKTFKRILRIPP
Chain of 5-HT2 receptors (P14842 whole entry): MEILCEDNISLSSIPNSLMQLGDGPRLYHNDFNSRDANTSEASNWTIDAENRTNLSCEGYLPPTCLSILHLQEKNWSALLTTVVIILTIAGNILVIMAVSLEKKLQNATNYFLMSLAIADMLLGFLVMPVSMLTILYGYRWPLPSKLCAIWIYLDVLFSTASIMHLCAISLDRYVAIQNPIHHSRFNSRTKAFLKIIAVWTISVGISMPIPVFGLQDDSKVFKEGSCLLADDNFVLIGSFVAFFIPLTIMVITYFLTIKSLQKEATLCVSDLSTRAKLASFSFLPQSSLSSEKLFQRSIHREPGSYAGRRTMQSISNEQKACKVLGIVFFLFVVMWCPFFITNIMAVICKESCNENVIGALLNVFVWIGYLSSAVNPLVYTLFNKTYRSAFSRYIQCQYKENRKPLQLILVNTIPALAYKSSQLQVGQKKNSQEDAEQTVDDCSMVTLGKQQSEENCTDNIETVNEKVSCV

## CN1[C@@H]2CC[C@H]1C[C@@H](OC(=O)c1c[nH]c3ccccc13)C2 [R, 3-endo-tropanyl indol-3-yl carboxylate, reference compound]
5-HT1 receptors
  Affinity (IC50) to 5-HT1 receptors: inactive
[1]
  Kb: 3.16 µM
  antihistaminic activity (in words): practically free of anticholinergic and antihistaminic activity
Ca^++ receptors
  Displacement activity at receptors of Ca++: inactive
5-HT2 receptors; 3H-spiroperidol 0.25 nM
  pIC50: 4.60
[2]
  Kb: 15.8 µM
  anticholinergic activity (in words): practically free of anticholinergic and antihistaminic activity
Guinea pig back
  ED50 (C.L. 95%), 5 min.: 2.5 (2.1-2.9) mM
  ED50 (C.L. 95%), 15 min.: 3.3 (3.0-3.7) mM
  ED50 (C.L. 95%), 30 min.: 5.7 (5.2-6.2) mM
[3]; 3 mg/kg per os
  % VF: 70%
  % dead: 30%
  incidence dead: 3
[3]; [8]
  incidence VF: 7
Rat sciatic nerve
  local anaesthetic activity (in words): good activity; also recorded: comparable with that of lidocaine
Rat sciatic nerve; rat sciatic nerve in vitro, 8 minutes contact
  pIC50: 2.89
[4]; [9]
  ED50: 0.65 mg/kg
[4]; [10]
  ED50: 4 mg/kg
[5]
  Displacement activity at benzodiazepine receptors: 1,000
5-HT3 receptors [6]
  ED50: 0.006 mg/kg

## Cc1cc(C(=O)O[C@H]2C[C@H]3CC[C@@H](C2)N3C)no1 [Compound 8, 5-methylisoxazole-3-carboxylic acid 3-(endo-8-methyl-8-azabicyclo[3,2,1]octyl) ester hydrochloride]
5-HT1 receptors
  Affinity (IC50) to 5-HT1 receptors: inactive
[1]; vs histamine, guinea pig small intestine, 37° C., test compounds 10^-5 M, read-out: Antihistaminic activity (pA2) (converted)
  Kb: 6.31 µM
Ca^++ receptors
  Displacement activity at receptors of Ca++: inactive
5-HT2 receptors; 3H-spiroperidol […]
  Affinity (IC50) to 5-HT2 receptors: inactive
[2]
  Kb: 6.31 µM
Guinea pig back
  ED50 (C.L. 95%), 5 min.: 28.4 (25.5-31.8) mM
  ED50 (C.L. 95%), 15 min.: 32.8 (30.5-35.2) mM
  ED50 (C.L. 95%), 30 min.: 41.2 (38.8-43.7) mM
Guinea pig back; guinea pig, in vivo
  local anaesthetic activity, guinea pig back (in words): undoubtedly less active as local anaesthetic than compound R and lidocaine
[3]; 1 mg/kg per os
  % VF: 20%
  % dead: 10%
  incidence dead: 1
[3]; 1 mg/kg per os, ** significance < 0.02
  incidence VF: 2
[3]; 3 mg/kg per os
  % VF: 0%
  % dead: 0%
  incidence dead: 0
[3]; [8]
  incidence VF: 0
[3]; per os
  antiarrythmic activity, reperfusion induced arrythmias (in words): active in the test of reperfusion-induced arrythmias
5-HT3 receptors [7]
  Kb: 0.000631 µM
Rat sciatic nerve; rat, sciatic nerve, 8 min
  pIC50: < 1.82
[4]; [9]
  ED50: 0.125 mg/kg
[4]; [10]
  ED50: 0.35 mg/kg
[4]; intravenously or per os
  activity in norepinephrine-induced arrythmia (in words): much more active than the compound R
[5]
  Displacement activity at benzodiazepine receptors: inactive
